Results published in US12686664B2, “SOCE inhibitors and therapeutic uses thereof” (Institut National de la Santé et de la Recherche Médicale …, priority 2020, dated 2026).
Where a name gives a salt, the structure may show the parent alone. Read-outs that look alike come from different tables or passages of the source. Marks after values point to notes of the source that are not given here.

Test system: store-operated Ca^2+ entry in PLP-B lymphocytes
Experiment: Store-operated Ca2+ entry after thapsigargin depletion of ER Ca2+ stores in PLP-B lymphocytes
Type: cell-based
Conditions: for IC50: SOCE in PLP-B lymphocytes, average of three assays, ±0.5 μM
Experimental: The effects of the molecules developed were tested on PLP-B lymphocytes. Store-operated Ca^2+ entry was induced by depletion of Endoplasmic Reticulum Ca^2+ stores (ER Ca^2+ stores) with thapsigargin (Tg) in a Ca^2+-free medium and measured following the addition of 1.8 mM of CaCl2) in the extracellular medium. The results are compared to the results obtained for known SOCE inhibitors SKF-96365, GSK-7975A, Synta 66.

[1] = Lymphocyte, 10 μM, PLP-B lymphocytes, % of inhibition (−) or activation, DMSO control 100%, read-out: Effect on amplitude of SOCE Peak
[2] = Lymphocyte, 10 μM, thapsigargin (Tg) peak, PLP-B lymphocytes, % of inhibition (−) or activation, read-out: Effect on amplitude of Tg Peak
[3] = Lymphocyte, 50 μM, PLP-B lymphocytes, % of inhibition (−) or activation, DMSO control 100%, read-out: Effect on amplitude of SOCE Peak
[4] = Lymphocyte, 50 μM, thapsigargin (Tg) peak, PLP-B lymphocytes, % of inhibition (−) or activation, read-out: Effect on amplitude of Tg Peak
[5] = Lymphocyte, 100 μM, PLP-B lymphocytes, % of inhibition (−) or activation, DMSO control 100%, read-out: Effect on amplitude of SOCE Peak
[6] = Lymphocyte, 100 μM, thapsigargin (Tg) peak, PLP-B lymphocytes, % of inhibition (−) or activation, read-out: Effect on amplitude of Tg Peak
[7] = Lymphocyte, PLP-B lymphocytes, % of inhibition (−) or activation, DMSO control 100%, read-out: Effect on amplitude of SOCE Peak
[8] = Lymphocyte, thapsigargin (Tg) peak, PLP-B lymphocytes, % of inhibition (−) or activation, read-out: Effect on amplitude of Tg Peak
[9] = Lymphocyte, 1 μM, PLP-B lymphocytes, % of inhibition (−) or activation, DMSO control 100%, read-out: Effect on amplitude of SOCE Peak
[10] = Lymphocyte, 1 μM, thapsigargin (Tg) peak, PLP-B lymphocytes, % of inhibition (−) or activation, read-out: Effect on amplitude of Tg Peak

Row | SMILES | inhibition at 10 µM [1] | inhibition at 10 µM [2] | inhibition at 50 µM [3] | inhibition at 50 µM [4] | inhibition at 100 µM [5] | inhibition at 100 µM [6] | further results
1 | CS(=O)(=O)Oc1ccc(Cn2c(C(F)(F)F)nc3ccccc32)cc1 [8αc, 4-((2-(Trifluoromethyl)-1H-benzo[d]imidazol-1-yl)methyl)phenyl methane sulfonate] | 14% | -10% | 9% | -10% | 24% | 32% | –
2 | COc1ccc(COc2ccc(CCn3ccc(C(F)(F)F)n3)cc2)cc1 [6βq DAD 2.333] | – | – | 5% | – | 37% | – | –
3 | COc1ccccc1CCOc1ccc(CCn2cnc3ccccc32)cc1 [6αac DAD 4-566] | 31.1% | -9.6% | 87.2% | -9% | 84.3% | -13.2% | inhibition at 0.1 µM [7]: -12.9%; inhibition at 0.1 µM [8]: -2.3%; inhibition at 1 µM [9]: -6.2%; inhibition at 1 µM [10]: 1.1%; IC50 (Lymphocyte): 13.5 µM
4 | COc1ccc(CCOc2ccccc2CCn2nc(C(F)(F)F)cc2C(F)(F)F)cc1 [6βz DAD 3.536] | 30% | 9% | 37% | 12% | 40% | 8% | –
5 | FC(F)(F)c1ncn(CCc2ccc(OCCCc3ccccc3)cc2)n1 [6βi DAD 3.475] | – | – | 13% | 6% | 43% | 7% | –
6 | Oc1ccc(CCn2cnc3ccccc32)cc1 [12αa, 1-(4-Hydroxyphenylethyl)-1H-benzo[d]imidazol hydrochloride] | -2.2% | -2.7% | 0.9% | -4.3% | -2.5% | -7.4% | –
7 | COc1ccc(CCOc2ccc(CCn3ccc(C(F)(F)F)n3)cc2)cc1 [Compound 6βs] | 13% | – | 34% | 6% | 64% | 10% | –
8 | COc1ccc(CCOc2ccc(CCn3c(C(F)(F)F)nc4ccccc43)cc2)cc1 [6αc DAD 4-546, 1-(4-(4-Methoxyphenethoxy)phenethyl)-2-trifluoromethyl-1H-benzo[d]imidazole] | – | – | 30% | 18% | 26% | 18% | –
9 | Oc1ccc(CCn2cncn2)cc1 [12βa, 1-(4-Hydroxyphenylethyl)-1H-1,2,4-triazole hydrochloride] | 8% | 8% | 10% | 14% | 12% | 8% | –
10 | c1ccc(OCCOc2ccc(CCn3cnc4ccccc43)cc2)cc1 [6αae DAD 4-569] | -7.5% | 11.3% | -13.1% | 7.6% | 12.4% | 12% | –
11 | COc1ccc(CCOc2ccc(CCn3cnc4c(Cl)cc(C(F)(F)F)cc43)cc2)cc1 [6αe DAD 4-548, 4-Chloro-1-(4-(4-methoxyphenethoxy)phenethyl)-6-(trifluoromethyl)-1H-benzo[d]imidazole] | – | – | 28% | -5% | 9% | -1% | –
12 | Nc1ccc2c(c1)nc(C(F)(F)F)n2CCc1ccc(OCCCc2ccccc2)cc1 [6αv VAL 1-64] | -8% | – | 25% | -11% | 77% | -2% | percent change in peak amplitude vs DMSO control (negative = inhibition, positive = activation) at 10 µM [2]: 0%
13 | COc1ccc(CCCOc2ccc(CCn3ncc4ccccc43)cc2)cc1 [6αaa DAD 4-574] | 10.4% | 23.1% | 16.4% | 13.3% | 31.6% | 19.7% | –
14 | COc1ccc(CCCOc2ccc(CCn3c(C(F)(F)F)nc4cc(N)ccc43)cc2)cc1 [6αu VAL 1-75] | -6% | -5% | 30% | -11% | 68% | -5% | –
15 | CS(=O)(=O)Oc1ccc(Cn2cccn2)cc1 [8βa, 4-((1H-Pyrazol-1-yl)methyl)phenylmethanesulfonate] | – | – | – | – | – | – | Effect on amplitude of SOCE peak (10 μM, PLP-B lymphocytes, % of inhibition (−) or activation, DMSO control 100%): −30.0# %; Effect on amplitude of Tg Peak (10 μM, thapsigargin (Tg) peak, PLP-B lymphocytes, % of inhibition (−) or activation): −20.0# %; Effect on amplitude of SOCE peak (50 μM, PLP-B lymphocytes, % of inhibition (−) or activation, DMSO control 100%): −27.0# %; Effect on amplitude of Tg Peak (50 μM, thapsigargin (Tg) peak, PLP-B lymphocytes, % of inhibition (−) or activation): −14.0// %; Effect on amplitude of SOCE peak (100 μM, PLP-B lymphocytes, % of inhibition (−) or activation, DMSO control 100%): −25.0# %; Effect on amplitude of Tg Peak (100 μM, thapsigargin (Tg) peak, PLP-B lymphocytes, % of inhibition (−) or activation): −12.0// %
16 | Oc1ccc(CCOc2ccc(CCn3cnc4ccccc43)cc2)cc1 [12αb, 1-(4-(4-Hydroxyphenethoxy)phenethyl)-1H-benzo[d]imidazol hydrochloride] | -25% | -7% | -1% | -4% | 3% | – | percent change in peak amplitude vs DMSO control (negative = inhibition, positive = activation) at 100 µM [6]: 0%
17 | COc1ccc(CCOc2ccc(CCn3ncc4ccccc43)cc2)cc1 [6αb DAD 4-573, 1-(4-(4-Methoxyphenethoxy)phenethyl)-1H-indazole] | -14% | 8% | – | 5% | 30% | 22% | percent change in peak amplitude vs DMSO control (negative = inhibition, positive = activation) at 50 µM [3]: 0%
18 | CS(=O)(=O)Oc1ccc(Cn2cncn2)cc1 [8βb, 4-((1H-1,2,4-Triazol-1-yl)methyl)phenyl methanesulfonate] | 27% | 3% | 41% | -2% | 35% | 6% | inhibition at 0.1 µM [7]: 19%; inhibition at 0.1 µM [8]: 23%; inhibition at 1 µM [9]: 23%; inhibition at 1 µM [10]: 9%
19 | Oc1ccc(CCn2ncc3ccccc32)cc1 [12αe, 1-(4-Hydroxyphenylethyl)-1H-indazole hydrochloride] | 5% | 11% | 18% | 29% | 8% | 28% | –
20 | FC(F)(F)c1ccn(CCc2ccc(OCCCc3ccccc3)cc2)n1 [6βt DAD 3.363] | – | – | 7.7% | – | 19.1% | – | –
21 | Oc1ccc(CCn2cnc3cc(F)ccc32)cc1 [12αd, 5-Fluoro-1-(4-hydroxyphenylethyl)-1H-benzo[d]imidazol hydrochloride] | -2.7% | -6% | -3% | -4.2% | 6.4% | -4.6% | –
22 | c1ccc2c(c1)ncn2CCc1ccc(OCCc2ccc(OC3CCCCO3)cc2)cc1 (stereo not drawn) [11αb, 1-(4-(4-((Tetrahydro-2H-pyran-2-yl)oxy)phenethoxy)phenethyl)-1H-benzo[d]imidazole] | 29% | -2% | 51% | 2% | – | – | inhibition at 0.1 µM [7]: -28%; inhibition at 0.1 µM [8]: -11%; inhibition at 1 µM [9]: -41%; percent change in peak amplitude vs DMSO control (negative = inhibition, positive = activation) at 1 µM [10]: 0%; inhibition at 5 µM [7]: -16%; inhibition at 5 µM [8]: 2%; IC50 (Lymphocyte): 6.8 µM
23 | COc1ccc(CCOc2ccccc2CCn2cnc3ccccc32)cc1 [6αo DAD 4-551] | – | – | 33% | 4% | 82% | -8% | –
